# Test results taken from patent US20140057977A1, “Induction of Arteriogenesis” (G. Pohl-Boskamp GmbH & Co. KG, priority 2012, published 2014).
# Values joined by “and” are separate entries in the source; they are usually repeats but may differ in a detail not shown here. Equal values may be shown once. “Also recorded” adds a separate entry of the source.
# What was measured:
# Type in all cases: in vivo
# [1] = tested on: rat heart; assay: ST segment elevation (ECG) during final permanent LAD occlusion (FPO), rat repetitive ischemia protocol (RIP) arteriogenesis model
# [2] = tested on: rat heart; assay: Ventricular arrhythmias during FPO, Lown classification and VPB score
# [3] = tested on: rat heart; assay: Infarct size by TTC staining after 90 minutes of LAD occlusion; conditions: for Infarct size: 90 min LAD occlusion, percentage of the area of the left ventricle
structure (smiles),measurement,setting,value
"CC(=O)Oc1ccccc1C(=O)O [ASA+NTG-PLACEBO, acetyl salicylic acid]",ST segment elevation,"[1]; 5 DAYS RIP, after FPO",0.144±0.091 mV
same,rats with class IIIa arrhythmias,"[2]; 5 DAYS RIP, during FPO",16.7%
same,rats with class IVb arrhythmias,"[2]; 5 DAYS RIP, during FPO",83.3%
same,VPB-Score,[2]; RIP (Modules 2-4),5.50
same,Infarct size,[3]; 5 DAYS RIP,13.92±1.71%
same,Infarct size,"[3]; 5 DAYS RIP, listed as NTG-PLACEBO+ASS",13.92±1.71%
"CC(=O)Oc1ccccc1C(=O)O [ASA+PBS, acetyl salicylic acid]",ST segment elevation compared to controls (in words),"[1]; 5 DAYS RIP, after FPO","higher compared to the PBS control group, but there is no significance"
same,arrhythmias / VPB-Score compared to controls (in words),"[2]; 5 DAYS RIP, during FPO",higher compared to the controls
same,Infarct size,[3]; 5 DAYS RIP,12.51±3.05%
same,infarct size compared to controls (in words),"[3]; 5 DAYS RIP, listed as ASA",increase of infarct volumes
same,infarct size compared to controls (in words),"[3]; 5 DAYS RIP, listed as ASS+PBS",minimally increased
"O=[N+]([O-])O[C@H]1CO[C@H]2[C@@H]1OC[C@H]2O[N+](=O)[O-] [ISDN, isosorbide dinitrate]",ST segment elevation compared to controls (in words),"[1]; rat, in vivo",lower ST segment elevation course; also recorded: decreased compared to the PBS group but there is no significance; also recorded: non-significantly decreased; also recorded: decreases in ST elevation
same,arrhythmias / VPB-Score compared to controls (in words),"[2]; rat, in vivo",less arrhythmias
same,infarct size compared to controls (in words),"[3]; rat, in vivo","smaller compared to controls (treated with PBS or ISDN-Placebo), but there is no significance; also recorded: smaller; also recorded: reduced infarct volumes"
"O=[N+]([O-])OCC(CO[N+](=O)[O-])O[N+](=O)[O-] [NTG, nitroglycerin]",ST segment elevation compared to controls (in words),"[1]; rat, in vivo",lower ST segment elevation course; also recorded: significantly decreased; also recorded: significantly attenuated ST elevation
same,VPB-Score,"[2]; rat, in vivo",5.77 and 3.60
same,arrhythmias / VPB-Score compared to controls (in words),"[2]; rat, in vivo",more often scaled into grade 0; also recorded: reduced arrhythmias; also recorded: decreased serious arrhythmias
same,rats with class 0 arrhythmias,"[2]; rat, in vivo",57.1%
same,rats with class IIIa arrhythmias,"[2]; rat, in vivo",14.3%
same,rats with class IVb arrhythmias,"[2]; rat, in vivo",85.7% and 42.9%
same,decrease of infarct volume compared to the control group,"[3]; rat, in vivo",more than 50%
same,infarct size compared to controls (in words),"[3]; rat, in vivo",significantly smaller infarct area; also recorded: decreases the size of an experimentally induced myocardial infarct
